Measurements reported in patent US11464750B2, “Anticancer agent and use thereof” (priority 2017, dated 2022).
pIC50: −log10 of the molar value.

What was measured:
topoisomerase = conditions: cited from earlier work
cyclin D1 = test: Western blotting, cyclin D1, JeKo-1 cells; format: cell-based, human; conditions: 0.5 μM; for abundance of cyclin D1: cytoplasm fraction
Protocol: (§1) Specifically, first, JeKo-1 cells were cultured for 0 (control), 12, 24, and 48 hours in the presence of 0.5 μM of 3EZ,20Ac-ingenol. In addition, Panc-1 cells were cultured for 0 (control), 12, 24, and 48 hours in the presence of 3 μM of 3EZ,20Ac-ingenol.
Subsequently, abundances of cyclin D1 in entire cell fractions, nuclear fractions, and cytoplasm fractions of the respective cells were analyzed by Western blotting.

ATR protein [1] = test: Western blotting, ATR protein, Panc-1 cells; format: cell-based, human; conditions: 3 μM
Protocol: Specifically, JeKo-1 cells were cultured for 0 (control), 12, 24, and 48 hours in the presence of 0.5 μM of 3EZ,20Ac-ingenol. In addition, Panc-1 cells were cultured for 0 (control), 12, 24, and 48 hours in the presence of 3 μM of 3EZ,20Ac-ingenol.
Subsequently, ATR protein, p53 protein, and phosphorylated p53 (hereinafter also referred to as “p-p53”) protein in the respective cells were respectively detected using an anti-ATR antibody (Cell Signaling Technology), an anti-p53 antibody (Santa Cruz), and an anti-p-p53 antibody (Cell Signaling Technology). Furthermore, as a loading control, actin protein was detected using an anti-actin antibody (Sigma).

Panc-1 cells = test: MTT assay, Panc-1 cells; format: cell-based, human; conditions: 48 hours, read-out: IC50 with respect to the Panc-1 cells
Protocol: JeKo-1 cells of a cell line derived from a human mantle cell lymphoma were seeded in a 96-well plate at 1×10^4 cells/well/100 μL. In addition, Panc-1 cells of a cell line derived from a human pancreatic cancer were seeded in a 96-well plate at 3×10^3 cells/well/100 μL.
Subsequently, 3EZ,20Ac-ingenol at final concentrations of 0 (control), 0.1, 0.5, 1, 5, and 10 μM was added the wells of the respective cells, and culturing was performed for 48 hours. Subsequently, cell proliferation was examined by MTT assay using a Cell Proliferation Kit I (Roche Applied Science).
First, JeKo-1 cells were seeded in a 96-well plate at 1×10^4 cells/well/100 μL. Subsequently, irinotecan at a final concentration of 0 (control), 0.5, 1, 5, 10, 20, and 30 μM was added to the wells of the cells and culturing was performed for 48 hours. In addition, Panc-1 cells were seeded in a 96-well plate at 3×10^3 cells/well/100 μL. Subsequently, irinotecan at a final concentration of 0 (control), 0.5, 1, 5, 10, 20, 30, and 50 μM was added to the wells of the cells and culturing was performed for 48 hours. Subsequently, cell proliferation was examined by MTT assay using a Cell Proliferation Kit I (Roche Applied Science).

caspase 3 = test: Western blotting, activated caspase 3, JeKo-1 cells; format: cell-based, human; conditions: 0.5 μM, 48 hours after treatment
Protocol: Specifically, JeKo-1 cells were cultured for 0 (control), 12, 24, and 48 hours in the presence of 0.5 μM of 3EZ,20Ac-ingenol. In addition. Panc-1 cells were cultured for 0 (control), 12, 24, and 48 hours in the presence of 3 μM of 3EZ,20Ac-ingenol. Subsequently, activation of caspase 3 in the respective cells was detected by Western blotting using an anti-activated-caspase antibody (R & D Systems). Furthermore, as a loading control, actin protein was detected using an anti-actin antibody (Sigma).

Akt protein = test: Western blotting, total amount of Akt, JeKo-1 cells; format: cell-based, human; conditions: 0.5 μM, entire cell fraction
Protocol: as §1
Subsequently, by Western blotting using an anti-Akt antibody (Cell Signaling Technology) and an anti-p-Akt (Ser^473) antibody (Cell Signaling Technology), abundances of total amounts of Akt protein and p-Akt in the entire cell fractions, nuclear fractions, and cytoplasm fractions of the respective cells were analyzed. Furthermore, as a loading control, actin protein was detected using an anti-actin antibody (Sigma).

ATR protein [2] = test: Western blotting, ATR protein, BALL-1 cells; format: cell-based, human; conditions: 0.5 μM
Protocol: The effects of 3EZ,20Ac-ingenol treatment on expression of ATR were examined. First, BALL-1 cells were cultured in the presence of 3EZ,20Ac-ingenol at a final concentration of 0.5 μM for 12, 24, and 48 hours, and an expression level of ATR protein was analyzed by Western blotting using an anti-ATR antibody (Santa Cruz). Cells cultured in the absence of 3EZ,20Ac-ingenol were used as controls.
Subsequently, siRNA against ATR (“ON-TARGET Plus Human ATR (545) siRNA-SMARTpool,” GE Dharmacon) was introduced into BALL-1 cells at a final concentration of 50 nM and incubated for 48 hours. Subsequently, a cell medium was replaced with a new medium containing 3EZ,20Ac-ingenol at a final concentration of 0.5 μM and culturing was performed for 12, 24, and 48 hours, and an expression level of ATR protein was analyzed by Western blotting using an anti-ATR antibody (Santa Cruz).
Cells into which control siRNA (“ON-TARGET Plus Nontargeting pool,” GE Dharmacon) was introduced and which were then cultured in the absence of 3EZ,20Ac-ingenol were used as controls.

[3] = system: phosphorylated Akt (Ser^473); test: Western blotting, p-Akt (Ser473), TKG0377 cells; format: cell-based, human; conditions: 0.5 μM
Protocol: The effect of 3EZ,20Ac-ingenol treatment on a PI3K/Akt signaling pathway was examined. Specifically, BALL-1 cells, TKG0210 cells, and TKG0377 cells were cultured for 48 hours in the presence of 3EZ,20Ac-ingenol at a final concentration of 0.5 μM, and by Western blotting using an anti-p-Akt (Ser^473) antibody (Cell Signaling Technology), phosphorylation of the 473th serine residue of an Akt protein in respective fractions of the entire cell, a nucleus, and a cytoplasm was analyzed. In addition, cells cultured in the absence of 3EZ,20Ac-ingenol were used as controls.
BALL-1 cells, TKG0210 cells, and TKG0377 cells were cultured for 24 and 48 hours in the presence of 3EZ,20Ac-ingenol at a final concentration of 0.5 μM, and abundances of p-Akt in the nuclear fraction and the cytoplasm fraction were analyzed by Western blotting. In addition, respective cells cultured in the absence of 3FZ,20Ac-ingenol were used as controls.

CCCCC/C=C\C=C\C(=O)O[C@H]1C(C)=C[C@]23C(=O)[C@@H](C=C(COC(C)=O)[C@@H](O)[C@]12O)[C@H]1[C@@H](C[C@H]3C)C1(C)C [3EZ,20Ac-ingenol, 3-O-(2′E,4′Z-decadienoyl)-20-O-acetylingenol]
DNA cleavage (topoisomerase): does not cause DNA cleavage
abundance of cyclin D1 (cyclin D1; 12 to 48 hours): an increase in abundance of cyclin D1 was recognized
abundance of cyclin D1 (cyclin D1; thereafter): a decrease was recognized thereafter
expression level of cyclin D1 (cyclin D1; entire cell fraction, 12 to 48 hours): a decrease in expression level of cyclin D1 was observed
expression level of cyclin D1 (cyclin D1; nuclear fraction, 12 to 48 hours): a slight decrease in expression level of cyclin D1 was observed
expression level of ATR protein (ATR protein [1]; 12 hours, further increase 24 hours after treatment): an increase in expression level of ATR protein was recognized
expression level of ATR protein (ATR protein [1]; 48 hours after treatment): a decrease was recognized
pIC50 (Panc-1 cells): 5.52
activation of caspase 3 (caspase 3): activation of caspase 3 was observed
abundance of a total amount of Akt (Akt protein): almost no change was observed
expression of ATR (ATR protein [2]; cells with siRNA against ATR introduced, 12, 24, 48 hours): an increase in ATR expression was not recognized
expression of ATR (ATR protein [2]; from 12 hours until 48 hours): the expression of ATR increased
abundance of p-Akt ([3]; 24 and 48 hours, cytoplasm fraction and nuclear fraction): no decrease in abundance of p-Akt was observed
abundance of p-Akt ([3]; 48 hours, cytoplasm fraction): remained almost unchanged
abundance of p-Akt ([3]; 48 hours, nuclear fraction): increased
